These results are taken from US7435837B2, “Dihydrobenzofuranyl alkanamine derivatives and methods for using same” (Wyeth, priority 2003, dated 2008).

One may read the Ki as a measure of affinity in units of concentration, obtained from inhibition or displacement. One may read the Emax as the size of the effect at its maximum, as opposed to the concentration needed. A word on the EC50: it is the midpoint of the concentration-response curve.

The target of assay [1] is T1, human 5-hydroxytryptamine-2C (h5-HT2C) receptor (Homo sapiens, UniProt P28335).
T1 construct: expressed in transfected cells; host or cells: CHO (Chinese Hamster Ovary) cells; membranes
T1 sequence (P28335 33-458): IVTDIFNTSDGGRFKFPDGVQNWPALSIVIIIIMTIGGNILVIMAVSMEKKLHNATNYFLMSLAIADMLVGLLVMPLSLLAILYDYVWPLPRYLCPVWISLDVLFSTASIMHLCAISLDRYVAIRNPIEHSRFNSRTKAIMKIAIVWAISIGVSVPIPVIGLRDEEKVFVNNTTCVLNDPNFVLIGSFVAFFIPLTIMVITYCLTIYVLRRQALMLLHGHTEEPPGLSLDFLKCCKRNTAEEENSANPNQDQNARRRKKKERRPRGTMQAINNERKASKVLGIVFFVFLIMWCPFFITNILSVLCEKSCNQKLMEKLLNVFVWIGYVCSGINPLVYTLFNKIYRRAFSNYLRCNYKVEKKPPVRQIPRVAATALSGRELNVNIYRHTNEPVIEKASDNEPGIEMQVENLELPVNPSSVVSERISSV
Kind of assay: [125I]DOI binding to membranes of CHO cells expressing the human 5-HT2C receptor. Conditions: [125I]DOI radioligand, CHO cell membranes, room temperature 60 min; read-out: 5-HT2C Affinity Ki.

The target of the next assay is T2, human 5-HT2C receptor (Homo sapiens, UniProt P28335).
T2 sequence (P28335 33-458): T1 sequence (P28335 33-458)
Kind of assay: 5-HT2C receptor-stimulated calcium mobilization (FLIPR) in CHO cells.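 As to all read-outs here: Fluo-3-AM fluorescence read on FLIPR every 1 s, agonist added after 10 baseline reads, response taken as peak minus lowest raw fluorescence count.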 Type of assay: cell-based. To be noted: for Emax: CHO, read-out: 5-HT2C Function Emax (%); for Emax / 5-HT2C Function Emax (%): percentage of the response observed with a maximally effective concentration of 5-HT; for EC50: calcium mobilization, CHO cells stably expressing human 5-HT2C, read-out: 5-HT2C Function EC50.

For the molecule `CNCC1Cc2cccc(-c3ccccc3Cl)c2O1` (single isomer, unassigned; (+)) [Example 410, (+)-N-methyl-1-[7-(2-chlorophenyl)-2,3-dihydro-1-benzofuran-2-yl]methanamine], the Ki in assay [1] was found to be 0.08 nM. On human 5-HT2C receptor, the Emax stood at 90% and the EC50 came out at 0.05 nM.

Take `CNCC1Cc2cc(F)cc(-c3ccccc3C)c2O1` (single isomer, unassigned; (+)) [Example 442, (+)-{[5-fluoro-7-(2-methylphenyl)-2,3-dihydro-1-benzofuran-2-yl]methyl}methylamine]: in assay [1], the Ki was determined as 0.2 nM. For the same molecule, on human 5-HT2C receptor, the EC50 worked out at 6 nM and the “5-HT2C Function Emax (%)” value stood at 90%.

`CNCC1Cc2cc(F)cc(-c3cc(Cl)ccc3Cl)c2O1` (single isomer, unassigned; (+)) [Example 450, (+)-{[5-fluoro-7-(2,5-dichlorophenyl)-2,3-dihydro-1-benzofuran-2-yl]methyl}methylamine]: the inhibition constant Ki in assay [1] worked out at 0.27 nM. In addition, at human 5-HT2C receptor, the maximum response (Emax) came to 100% and the half-maximal effective concentration (EC50) was 0.8 nM.

For the molecule `CNCC1Cc2cc(C)cc(-c3cc(Cl)ccc3Cl)c2O1` (single isomer, unassigned; (+)) [Example 487, (+)-{[7-(2,5-dichlorophenyl)-5-methyl-2,3-dihydro-1-benzofuran-2-yl]methyl}methylamine], the inhibitory constant (Ki) in assay [1] worked out at 0.06 nM. Further, on human 5-HT2C receptor, the Emax worked out at 100% and the EC50 was determined as 3 nM.

Regarding `NCC1Cc2cc(F)cc(-c3c(Cl)cccc3Cl)c2O1` (single isomer, unassigned; (+)) [Example 551, (+)-{[7-(2,6 dichlorophenyl)-5-fluoro-2,3-dihydro-1-benzofuran-2-yl]methyl}amine], the Ki in assay [1] was 0.55 nM. Further, at human 5-HT2C receptor, the maximal response (Emax) turned out to be 90% and the EC50 turned out to be 17 nM.

`CNCC1Cc2cc(OC)cc(-c3c(C)cccc3C)c2O1` (single isomer, unassigned; (+)) [Example 561, (+)-{[7-(2,6-dimethylphenyl)-5-methoxy-2,3-dihydro-1-benzofuran-2-yl]methyl}methylamine]: in assay [1], the inhibitory constant (Ki) was 2.7 nM. Also, on human 5-HT2C receptor, the EC50 came out at 21 nM and the “5-HT2C Function Emax (%)” value is recorded as 80%.

Take `CNCC1Cc2cc(Cl)cc(-c3cc(Cl)ccc3Cl)c2O1` (single isomer, unassigned; (+)) [Example 562, (+)-{[5-chloro-7-(2,5-dichlorophenyl)-2,3-dihydro-1-benzofuran-2-yl]methyl}methylamine]: the inhibition constant Ki in assay [1] was 0.48 nM. In addition, on human 5-HT2C receptor, the maximal effect (Emax) worked out at 90% and the EC50 is 2 nM.

Take `NCC1Cc2cccc(C3CCCC3)c2O1` (single isomer, unassigned; (-)) [Example 9, (−)-(7-cyclopentyl-2,3-dihydro-1-benzofuran-2-yl)methylamine]: the Ki in assay [1] turned out to be 10 nM. At human 5-HT2C receptor, the EC50 amounted to 194 nM and the “5-HT2C Function Emax (%)” value is given as 85%.

Turning to `NCC1Cc2cccc(Cc3ccccc3)c2O1` (single isomer, unassigned; (-)) [Example 17, (−)-1-(7-benzyl-2,3-dihydro-1-benzofuran-2-yl)methanamine], in assay [1], the Ki was 66 nM. Also, at human 5-HT2C receptor, the half-maximal effective concentration (EC50) was 100 nM and the “5-HT2C Function Emax (%)” value stood at 70%.

As for `CC(C)c1cccc2c1OC(CN)C2` (single isomer, unassigned; (-)) [Example 19, (−)-(7-isopropyl-2,3-dihydro-1-benzofuran-2-yl)methylamine], the inhibition constant Ki in assay [1] was 2 nM. At human 5-HT2C receptor, the concentration giving a half-maximal response (EC50) was determined as 66 nM and the “5-HT2C Function Emax (%)” value stood at 100%.

Regarding `Cc1c(Cl)cc(C(C)C)c2c1CC(CN)O2` (single isomer, unassigned; (-)) [Example 22, (−)-1-(5-chloro-7-isopropyl-4-methyl-2,3-dihydro-1-benzofuran-2-yl)methanamine], in assay [1], the inhibitory constant (Ki) turned out to be 5 nM. Further, on human 5-HT2C receptor, the maximal response (Emax) was determined as 90% and the EC50 was 25 nM.

As for `CC(C)(C)c1cccc2c1OC(CN)C2` (single isomer, unassigned; (-)) [Example 25, (−)-1-(7-tert-butyl-2,3-dihydro-1-benzofuran-2-yl)methanamine], in assay [1], the Ki came out at 18 nM. Moreover, on human 5-HT2C receptor, the Emax came out at 90% and the EC50 came out at 10 nM.

As to `CC(C)(C)c1cc(Cl)cc2c1OC(CN)C2` (single isomer, unassigned; (-)) [Example 28, (−)-1-(7-tert-butyl-5-chloro-2,3-dihydro-1-benzofuran-2-yl)methanamine], the inhibitory constant (Ki) in assay [1] was determined as 16 nM. Moreover, on human 5-HT2C receptor, the maximal effect (Emax) was 90% and the EC50 stood at 77 nM.

`NCC1Cc2cccc(-c3ccccc3)c2O1` (single isomer, unassigned; (-)) [Example 38, (−)-1-(7-phenyl-2,3-dihydro-1-benzofuran-2-yl)methanamine]: the Ki in assay [1] stood at 56 nM. At human 5-HT2C receptor, the maximal response (Emax) was 100% and the half-maximal effective concentration (EC50) came out at 540 nM.

As to `Cc1cccc(-c2cccc3c2OC(CN)C3)c1` (single isomer, unassigned; (-)) [Example 43, (−)-1-[7-(3-methylphenyl)-2,3-dihydro-1-benzofuran-2-yl]methanamine], the Ki in assay [1] was 100 nM. Moreover, at human 5-HT2C receptor, the EC50 amounted to 748 nM and the “5-HT2C Function Emax (%)” value was 80%.

`Cc1ccccc1-c1cccc2c1OC(CN)C2` (single isomer, unassigned; (-)) [Example 49, (−)-1-[7-(2-methylphenyl)-2,3-dihydro-1-benzofuran-2-yl]methanamine]: the inhibition constant Ki in assay [1] turned out to be 10 nM. On human 5-HT2C receptor, the concentration giving a half-maximal response (EC50) is 132 nM and the “5-HT2C Function Emax (%)” value is on record as 80%.

Turning to `NCC1Cc2cccc(-c3ccccc3C(F)(F)F)c2O1` (single isomer, unassigned; (-)) [Example 54, (−)-1-{7-[2-(trifluoromethyl)phenyl]-2,3-dihydro-1-benzofuran-2-yl}methanamine], the Ki in assay [1] was determined as 0.5 nM. Also, at human 5-HT2C receptor, the maximum response (Emax) was determined as 85% and the EC50 was determined as 9 nM.

Consider `Cc1cccc(C)c1-c1cccc2c1OC(CN)C2` (single isomer, unassigned; (-)) [Example 57, (−)-1-[7-(2,6-dimethylphenyl)-2,3-dihydro-1-benzofuran-2-yl]methanamine], for which, in assay [1], the inhibition constant (Ki) was found to be 1 nM. In addition, at human 5-HT2C receptor, the maximum response (Emax) is 80% and the EC50 was 12 nM.

Regarding `NCC1Cc2cccc(-c3cccc(Cl)c3)c2O1` (single isomer, unassigned; (-)) [Example 67, (−)-1-[7-(3-chlorophenyl)-2,3-dihydro-1-benzofuran-2-yl]methanamine], the inhibition constant (Ki) in assay [1] was 83 nM. Moreover, on human 5-HT2C receptor, the EC50 was 5760 nM and the “5-HT2C Function Emax (%)” value is on record as 70%.

For the molecule `Cc1ccc(-c2cccc3c2OC(CN)C3)cc1` (single isomer, unassigned; (-)) [Example 72, (−)-1-[7-(4-methylphenyl)-2,3-dihydro-1-benzofuran-2-yl]methanamine], the Ki in assay [1] was 33 nM. Besides, at human 5-HT2C receptor, the half-maximal effective concentration (EC50) was 511 nM and the “5-HT2C Function Emax (%)” value stood at 85%.

On to `NCC1Cc2cccc(-c3ccc(Cl)cc3)c2O1` (single isomer, unassigned; (-)) [Example 78, (−)-1-[7-(4-chlorophenyl)-2,3-dihydro-1-benzofuran-2-yl]methanamine], for which the Ki in assay [1] worked out at 41 nM. At human 5-HT2C receptor, the EC50 turned out to be 161 nM and the “5-HT2C Function Emax (%)” value was 90%.
